Molecules are shown by their SMILES.

human PDE10A2, sequence (Q9Y233 267-1055): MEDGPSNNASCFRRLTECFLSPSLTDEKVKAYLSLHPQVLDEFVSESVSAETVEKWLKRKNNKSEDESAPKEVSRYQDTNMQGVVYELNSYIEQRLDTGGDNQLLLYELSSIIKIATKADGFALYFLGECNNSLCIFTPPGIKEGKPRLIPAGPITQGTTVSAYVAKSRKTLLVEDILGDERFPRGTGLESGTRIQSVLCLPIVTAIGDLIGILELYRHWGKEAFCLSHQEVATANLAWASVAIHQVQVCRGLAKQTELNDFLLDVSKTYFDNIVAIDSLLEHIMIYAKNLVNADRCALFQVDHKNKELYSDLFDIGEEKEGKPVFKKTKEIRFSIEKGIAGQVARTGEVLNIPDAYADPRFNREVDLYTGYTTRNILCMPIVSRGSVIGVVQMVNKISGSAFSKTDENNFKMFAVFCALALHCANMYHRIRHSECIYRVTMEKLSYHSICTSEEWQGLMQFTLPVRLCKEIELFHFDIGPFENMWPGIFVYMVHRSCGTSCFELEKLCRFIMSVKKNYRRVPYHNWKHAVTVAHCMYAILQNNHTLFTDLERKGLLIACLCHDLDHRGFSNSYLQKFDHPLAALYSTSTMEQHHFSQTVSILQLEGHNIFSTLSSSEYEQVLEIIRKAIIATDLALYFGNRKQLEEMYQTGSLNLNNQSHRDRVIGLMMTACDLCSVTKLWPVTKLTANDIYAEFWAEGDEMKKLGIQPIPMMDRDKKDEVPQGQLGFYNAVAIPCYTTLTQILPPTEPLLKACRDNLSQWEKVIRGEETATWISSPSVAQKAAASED

The experiment concerns the target human PDE10A2 (Homo sapiens (Human), UniProt Q9Y233). The experiment can be described thus: PDE10 fluorescence polarization (IMAP FP) inhibition assay. It counts as biochemical. The note with it: human PDE10A2 from transfected AD293 cells; FAM-labeled cAMP 50 nM; apparent inhibition constant; read-out: PDE10A Ki. The method, then: The activity of the compounds in accordance with the present invention as PDE10 inhibitors may be readily determined without undue experimentation using a fluorescence polarization (FP) methodology that is well known in the art (Huang, W., et al., J. Biomol Screen, 2002, 7: 215).
In a typical experiment the PDE10 inhibitory activity of the compounds of the present invention was determined in accordance with the following experimental method. PDE10A2 was amplified from human fetal brain cDNA (Clontech, Mountain View, Calif.) using a forward primer corresponding to nucleotides 56-77 of human PDE10A2 (Accession No. AF127480, Genbank Identifier 4894716), containing a Kozak consensus sequence, and a reverse primer corresponding to nucleotides 2406-2413 of human PDE10A2 (Accession No. AF127480, Genbank Identifier 4894716). Amplification with Easy-A polymerase (Stratagene, La Jolla, Calif.) was 95° C. for 2 minutes followed by thirty three cycles of 95° C. for 40 seconds, 55° C. for 30 seconds, and 72° C. for 2 minutes 48 seconds. Final extension was 72° C. for 7 minutes. The PCR product was TA cloned into pcDNA3.2-TOPO (Invitrogen, Carlsbad, Calif.) according to standard protocol. AD293 cells with 70-80% confluency were transiently transfected with human PDE10A2/pcDNA3.2-TOPO using Lipofectamine 2000 according to manufacturer specifications (Invitrogen, Carlsbad, Calif.). Cells were harvested 48 hours post-transfection and lysed by sonication (setting 3, 10×5 sec pulses) in a buffer containing 20 mM HEPES, 1 mM EDTA and protease inhibitor cocktail (Roche). Lysate was collected by centrifugation at 75,000×g for 20 minutes. Supernatant containing the cytoplasmic fraction was used for evaluation of PDE10A2 activity. The fluorescence polarization assay for cyclic nucleotide phosphodiesterases was performed using an IMAP® FP kit supplied by Molecular Devices, Sunnyvale, Calif. (product # R8139). IMAP® technology has been applied previously to phosphodiesterase assays (Huang, W., et al., J. Biomol Screen, 2002, 7: 215). Assays were performed at room temperature in 384-well microtiter plates with an incubation volume of 20.2 μL. Solutions of test compounds were prepared in DMSO and serially diluted with DMSO to yield 8 μL of each of 10 solutions differing by 3-fold in concentration, at 32 serial dilutions per plate. […] 0% of inhibition is determined by using DMSO (1% final concentrations).
A Labcyte Echo 555 (Labcyte, Sunnyvale, Calif.) is used to dispense 200 nL from each well of the titration plate to the 384 well assay plate. A solution of enzyme (1/1600 dilution from aliquots; sufficient to produce 20% substrate conversion) and a separate solution of FAM-labeled cAMP PDE from Molecular Devices (product # R7506), at a final concentration of 50 nM are made in the assay buffer (10 mM Tris HCl, pH 7.2, 10 mM MgCl2, 0.05% NaN3 0.01% Tween-20, and 1 mM DTT). The enzyme and the substrate are then added to the assay plates in two consecutive additions of 10 μL, and then shaken to mix. The reaction is allowed to proceed at room temperature for 30 minutes. […] The enzymatic reaction is stopped by addition of 60 μL of the binding solution to each well of the assay plates and the plates are sealed and shaken for 10 seconds. The plate was incubated at room temperature for at least one hour prior to determining the fluorescence polarization (FP). The parallel and perpendicular fluorescence of each well of the plate was measured using a Perkin Elmer EnVision™ plate reader (Waltham, Mass.).
Fluorescence polarization (mP) was calculated from the parallel (S) and perpendicular (P) fluorescence of each sample well and the analogous values for the median control well, containing only substrate (So and Po), using the following equation: Polarization(mP)=1000*(S/So−P/Po)/(S/So+P/Po).
Dose-inhibition profiles for each compound were characterized by fitting the mP data to a four-parameter equation given below.
For `Cc1ccc([C@H]2C[C@@H]2COc2nc(C)ncc2-c2cc(C)ccc2C)nc1` [Example 13, 5-(2,5-dimethylphenyl)-2-methyl-4-(((1S,2S)-2-(5-methylpyridin-2-yl)cyclopropyl)methoxy)pyrimidine], the Ki came out at 0.7 nM.

Take `Cc1ccc([C@H]2C[C@@H]2COc2nc(C)ncc2-c2ccccc2C(F)(F)F)nc1` [Example 14, 2-methyl-4-(((1S,2S)-2-(5-methylpyridin-2-yl)cyclopropyl)methoxy)-5-(2-(trifluoromethyl)phenyl)pyrimidine]: the Ki amounted to 3.1 nM.

Turning to `Cc1ccc([C@H]2C[C@@H]2COc2nc(C)ncc2-c2ccc(F)c(F)c2)nc1` [Example 15, 5-(3,4-difluorophenyl)-2-methyl-4-(((1S,2S)-2-(5-methylpyridin-2-yl)cyclopropyl)methoxy)pyrimidine], the Ki was determined as 1.11 nM.

As for `COc1ncccc1-c1cnc(C)nc1OC[C@H]1C[C@@H]1c1ccc(C)cn1` [Example 16, 5-(2-methoxypyridin-3-yl)-2-methyl-4-(((1S,2S)-2-(5-methylpyridin-2-yl)cyclopropyl)methoxy)pyrimidine], the Ki stood at 0.74 nM.

`Cc1ccc([C@H]2C[C@@H]2COc2nc(C)ncc2-c2ccncc2C(F)(F)F)nc1` [Example 17, 2-methyl-4-(((1S,2S)-2-(5-methylpyridin-2-yl)cyclopropyl)methoxy)-5-(3-(trifluoromethyl)pyridin-4-yl)pyrimidine]: the Ki was found to be 0.59 nM.

With `Cc1ccc([C@H]2C[C@@H]2COc2nc(C)ncc2-c2ccnc(F)c2)nc1` [Example 19, 5-(2-fluoropyridin-4-yl)-2-methyl-4-(((1S,2S)-2-(5-methylpyridin-2-yl)cyclopropyl)methoxy)pyrimidine], the Ki came out at 0.55 nM.

Regarding `COc1ccc([C@H]2C[C@@H]2COc2nc(C)ncc2-c2ccnc(F)c2)nc1` [Example 21, 5-(2-fluoropyridin-4-yl)-4-(((1S,2S)-2-(5-methoxypyridin-2-yl)cyclopropyl)methoxy)-2-methylpyrimidine], the Ki is 0.33 nM.

For the molecule `Cc1ccc(-c2cnc(C)nc2OC[C@H]2C[C@@H]2c2ccc3ccccc3n2)cn1` [Example 42, 2-((1S,2S)-2-((2-methyl-5-(6-methylpyridin-3-yl)pyrimidin-4-yloxy)methyl)cyclopropyl)quinoline], the Ki came to 0.02 nM.

As to `Cc1ccc([C@H]2C[C@@H]2COc2nc(C)ncc2-c2cnc(C(C)(C)O)cc2C)nc1` [Example 45, 2-(4-Methyl-5-(2-methyl-4-(((1S,2S)-2-(5-methylpyridin-2-yl)cyclopropyl)methoxy)pyrimidin-5-yl)pyridin-2-yl)propan-2-ol], the Ki turned out to be 0.02 nM.

As to `COC(=O)c1ccc(-c2cnc(C)nc2OC[C@H]2C[C@@H]2c2ccc(C)cn2)cn1` [Example 47, methyl 5-(2-methyl-4-(((1S,2S)-2-(5-methylpyridin-2-yl)cyclopropyl)methoxy)pyrimidin-5-yl)picolinate], the Ki is 2.2 nM.

On to `Cc1ccc([C@H]2C[C@@H]2COc2nc(C)ncc2-c2ccc3[nH]ccc3c2)nc1` [Example 48, 5-(2-methyl-4-(((1S,2S)-2-(5-methylpyridin-2-yl)cyclopropyl)methoxy)pyrimidin-5-yl)-1H-indole], for which the Ki is 3.25 nM.

On to `Cc1ccc([C@H]2C[C@@H]2COc2nc(C)ncc2-c2cccoc2=O)nc1` [Example 49, 3-(2-methyl-4-(((1S,2S)-2-(5-methylpyridin-2-yl)cyclopropyl)methoxy)pyrimidin-5-yl)-2H-pyran-2-one], for which the Ki turned out to be 22.4 nM.

With `Cc1ccc([C@H]2C[C@@H]2COc2nc(C)ncc2-c2ccc(=O)oc2)nc1` [Example 50, 5-(2-methyl-4-(((1S,2S)-2-(5-methylpyridin-2-yl)cyclopropyl)methoxy)pyrimidin-5-yl)-2H-pyran-2-one], the Ki amounted to 4.28 nM.

For `Cc1ccc([C@H]2C[C@@H]2COc2nc(C)ncc2C2=CCOCC2)nc1` [Example 51, 5-(3,6-dihydro-2H-pyran-4-yl)-2-methyl-4-(((1S,2S)-2-(5-methylpyridin-2-yl)cyclopropyl)methoxy)pyrimidine], the Ki worked out at 1.96 nM.

Turning to `COc1nncc(-c2cnc(C)nc2OC[C@H]2C[C@@H]2c2ccc(C)cn2)c1Cl` [Example 52, 4-chloro-3-methoxy-5-(2-methyl-4-(((1S,2S)-2-(5-methylpyridin-2-yl)cyclopropyl)methoxy)pyrimidin-5-yl)pyridazine], the Ki was 2.36 nM.

For the molecule `Cc1ccc([C@H]2C[C@@H]2COc2nc(C)ncc2-c2cc(O)ccn2)nc1` [Example 53, 2-(2-methyl-4-(((1S,2S)-2-(5-methylpyridin-2-yl)cyclopropyl)methoxy)pyrimidin-5-yl)pyridin-4-ol], the Ki is 25.5 nM.

In the case of `C=Cc1cnc(C)nc1OC[C@H]1C[C@@H]1c1ccc(C)cn1` [Example 54, 2-methyl-4-(((1S,2S)-2-(5-methylpyridin-2-yl)cyclopropyl)methoxy)-5-vinylpyrimidine], the Ki came to 10.4 nM.

Take `Cc1ccc([C@H]2C[C@@H]2COc2nc(C)ncc2-c2cnc(C)cc2C)nc1` [Example 55, 5-(4,6-dimethylpyridin-3-yl)-2-methyl-4-(((1S,2S)-2-(5-methylpyridin-2-yl)cyclopropyl)methoxy)pyrimidine]: the Ki stood at 0.87 nM.

As for `COc1cc(-c2cnc(C)nc2OC[C@H]2C[C@@H]2c2ccc(C)cn2)cnn1` [Example 56, 3-methoxy-5-(2-methyl-4-(((1S,2S)-2-(5-methylpyridin-2-yl)cyclopropyl)methoxy)pyrimidin-5-yl)pyridazine], the Ki was 6.12 nM.

Take `COCCOc1ccc(-c2cnc(C)nc2OC[C@H]2C[C@@H]2c2ccc(C)cn2)cn1` [Example 57, 5-(6-(2-methoxyethoxy)pyridin-3-yl)-2-methyl-4-(((1S,2S)-2-(5-methylpyridin-2-yl)cyclopropyl)methoxy)pyrimidine]: the Ki is 0.57 nM.

As to `Cc1ccc([C@H]2C[C@@H]2COc2nc(C)ncc2-c2cnnc(C)c2)nc1` [Example 58, 3-methyl-5-(2-methyl-4-(((1S,2S)-2-(5-methylpyridin-2-yl)cyclopropyl)methoxy)pyrimidin-5-yl)pyridazine], the Ki was 3.02 nM.

For the molecule `Cc1ccc([C@H]2C[C@@H]2COc2nc(C)ncc2-c2cnnc(Br)c2)nc1` [Example 59, 3-bromo-5-(2-methyl-4-(((1S,2S)-2-(5-methylpyridin-2-yl)cyclopropyl)methoxy)pyrimidin-5-yl)pyridazine], the Ki came out at 4.34 nM.

Consider `Cc1ccc([C@H]2C[C@@H]2COc2nc(C)ncc2C2=CC(=O)OC2)nc1` [Example 60, 4-(2-methyl-4-(((1S,2S)-2-(5-methylpyridin-2-yl)cyclopropyl)methoxy)pyrimidin-5-yl)furan-2(5H)-one], for which the Ki was determined as 13.9 nM.

For `Cc1ccc([C@H]2C[C@@H]2COc2nc(C)ncc2-c2ccc(OC(C)C)nc2C)nc1` [Example 61, 5-(6-isopropoxy-2-methylpyridin-3-yl)-2-methyl-4-(((1S,2S)-2-(5-methylpyridin-2-yl)cyclopropyl)methoxy)pyrimidine], the Ki came out at 1.51 nM.

Take `Cc1ccc([C@H]2C[C@@H]2COc2nc(C)ncc2-c2cnsc2)nc1` [Example 62, 4-(2-methyl-4-(((1S,2S)-2-(5-methylpyridin-2-yl)cyclopropyl)methoxy)pyrimidin-5-yl)isothiazole]: the Ki was determined as 2.02 nM.
